Results published in patent publication US8217000B2, “Method for elevating prolactin in mammals” (Cara Therapeutics, Inc., priority 2006, dated 2012).
Where a name gives a salt, the structure may show the parent alone. Non-standard residues stand in square brackets, D forms with d. Residues, ends and D or L forms follow the SMILES beside them. *: point of attachment. NH(4-picolyl) = c1cc(CN*)ccn1; dNle = CCCC[C@@H](N)C(=O)O

Assay: Plasma pharmacokinetics of CR665 after single IV infusion in human subjects
Details: for AUC(0-inf) / clearance / Cmax / MRT / Vd / half-life / Tmax / AUC(0-t): male, human, plasma, iv; for AUC(0-inf): AUC0-∞; for clearance: CL; for MRT: MRTint; for half-life: t1/2, males; for Tmax: median; for AUC(0-t): AUC0-t; for MRTint, geometric least squares mean: Parts A & B
Description: This clinical study was conducted as a double blind, placebo controlled, ascending single intravenous (IV) dose, sequential group study. This study was double blind and placebo controlled in order to avoid bias in the collection and evaluation of data during its conduct. […] In each group, subjects received CR665 or placebo. Doses were administered as a single constant rate IV infusion over 1 hour (part A) or 5 minutes (part B) on the morning of Day 1. Doses were administered in an escalating manner following satisfactory review of the safety data and pharmacokinetic data from the lower dose levels. There was a minimum of 6 days between dose escalations to allow sufficient time for an adequate safety review.
Plasma and urine samples for the analysis of CR665 and N oxide metabolite were prepared by solid phase extraction. The centrifuged eluates were quantified by liquid chromatography with tandem mass spectrometric detection (LC MS/MS). The lower limit of quantification was 1 ng/mL.
For pharmacokinetic assessments, blood samples (1×3 mL) were taken from the contralateral forearm vein(s) at the following times: Pre-dose, 15 minutes, 30 minutes, 45 minutes, 1 hour (immediately prior to the end of infusion), 1 hour 5 minutes, 1 hour 10 minutes, 1 hour 15 minutes, 1.5, 2, 2.5, 3, 4, 6, 8, 12, 16, 24, 36 and 48 hours after the start of the infusion). An indwelling cannula (Venflon®; BOC Ohmeda AB, Sweden) was used for all blood collection pre-dose and up to at least 12 hours after the start of the infusion. Otherwise, samples were collected using venipuncture. Blood samples were collected into pre-chilled 3 mL K3EDTA Vacutainer™ tubes (Becton Dickinson UK, Ltd., Oxford) and, after mixing, were placed in a cool box containing crushed ice/water. The samples were centrifuged, within 30 minutes of collection, at 1500 g for 10 minutes at approximately 4° C. For each sample, the separated plasma was transferred into two 5 mL suitably labeled polypropylene tubes, and stored immediately at approximately −20° C. Plasma samples were analyzed for CR665 using liquid chromatography with tandem mass spectrometric detection.
The pharmacokinetic analysis was conducted using WinNonlin Enterprise Version 4.0.1.
Pharmacokinetic parameters were determined from the plasma and urine, concentrations of CR665 and the N-oxide metabolite using non compartmental procedures.
Dose and body weight normalized values (norm) were determined for AUC0-t, AUC0-∞, Cinf and Cmax. Body weight normalized values [norm] were determined for Vz, Vss, CL and CLR.
The pharmacokinetic analysis was conducted using model independent methods as implemented in WinNonlin software, based on plasma concentrations of CR665 from those subjects who have received CR665 and have evaluable plasma concentration-time profiles.
The following plasma pharmacokinetic parameters were determined for CR665: • Cmax Maximum plasma concentration • tmax Time of maximum plasma concentration • t1/2z Terminal half-life=ln(2)/λz • AUC0-1 Area under the plasma concentration-time curve from time zero to time t (time of last quantifiable plasma concentration) • AUCinf Area under the plasma concentration-time curve from time zero to infinity calculated as [AUC0-t+(Clast/λz)] where Clast is the estimated concentration at the last quantifiable concentration curve. • λz Terminal-phase rate constant, also known as Kel • CL Total body clearance=Dose/AUCinf • Vz Volume of distribution based on terminal phase calculated as Vz/F=Dose/λz*AUCinf
Individual elapsed sampling times were used in the pharmacokinetic analysis. Cmax and tmax were obtained directly from the experimental observations. For the purpose of calculating AUC0-t, when two consecutive plasma concentrations below the lower limit of quantification (LLOQ) were encountered after tmax, all subsequent values were excluded from the analysis.

[1] = 0.06 mg/kg, males, 5-minute IV infusion, geometric mean
[2] = 0.06 mg/kg, males, 1 hour IV infusion, geometric mean
[3] = 0.09 mg/kg, males, 5-minute IV infusion, geometric mean
[4] = 0.12 mg/kg, males, 1 hour IV infusion, geometric mean
[5] = 0.24 mg/kg, males, 1 hour IV infusion, geometric mean
[6] = 0.36 mg/kg, males, 1 hour IV infusion, geometric mean
[7] = 0.42 mg/kg, males, 1 hour IV infusion, geometric mean
[8] = 0.48 mg/kg, males, 1 hour IV infusion, geometric mean
[9] = males, all doses, 5-minute infusion

CCCC[C@@H](NC(=O)[C@@H](Cc1ccccc1)NC(=O)[C@H](N)Cc1ccccc1)C(=O)N[C@H](CCCNC(=N)N)C(=O)NCc1ccncc1 [CR665, D-phenylalanyl-D-phenylalanyl-D-norleucyl-N-(4-pyridinylmethyl)-D-argininamide, acetate salt] (H-[dF][dF][dNle][dR]-{NH(4-picolyl)})
AUC(0-inf) [1]: 142 ng·h/mL | AUC(0-inf) [2]: 132 ng·h/mL | clearance [1]: 553 mL/min | clearance [2]: 564 mL/min | Cmax [1]: 624 ng/mL | Cmax [2]: 119 ng/mL | MRT [1]: 30.1 min | MRT [2]: 33.8 min | Vd (0.06 mg/kg, Vss, males, 0.06 mg/kg, 5-minute IV infusion, geometric mean): 16.6 L | Vd (0.06 mg/kg, Vss, males, 0.06 mg/kg, 1 hour IV infusion, geometric mean): 19 L | Vd (0.06 mg/kg, Vz, males, 5-minute IV infusion, geometric mean): 48 L | Vd (0.06 mg/kg, Vz, males, 1 hour IV infusion, geometric mean): 35.5 L | half-life (0.06 mg/kg, 5-minute IV infusion, geometric mean): 60 min | half-life (0.06 mg/kg, 1 hour IV infusion, geometric mean): 43.7 min | Tmax (0.06 mg/kg, males, 5-minute IV infusion): 5 min | Tmax (0.06 mg/kg, males, 1 hour IV infusion): 52.5 min | AUC(0-t) [3]: 209 ng·h/mL | AUC(0-inf) [3]: 213 ng·h/mL | clearance [3]: 575 mL/min | Cmax [3]: 783 ng/mL | MRT [3]: 32.2 min | Vd (0.09 mg/kg, Vss, males, 0.09 mg/kg, 5-minute IV infusion, geometric mean): 18.5 L | Vd (0.09 mg/kg, Vz, males, 5-minute IV infusion, geometric mean): 56.7 L | half-life (0.09 mg/kg, 5-minute IV infusion, geometric mean): 68.4 min | Tmax (0.09 mg/kg, males, 5-minute IV infusion): 5 min | AUC(0-t) [4]: 267 ng·h/mL | AUC(0-inf) [4]: 270 ng·h/mL | clearance [4]: 533 mL/min | Cmax [4]: 231 ng/mL | MRT [4]: 43.4 min | Vd (0.12 mg/kg, Vss, males, 0.12 mg/kg, 1 hour IV infusion, geometric mean): 23.1 L | Vd (0.12 mg/kg, Vz, males, 1 hour IV infusion, geometric mean): 75.9 L | half-life (0.12 mg/kg, 1 hour IV infusion, geometric mean): 99 min | Tmax (0.12 mg/kg, males, 1 hour IV infusion): 45 min | AUC(0-t) [5]: 474 ng·h/mL | AUC(0-inf) [5]: 478 ng·h/mL | clearance [5]: 629 mL/min | Cmax [5]: 431 ng/mL | MRT [5]: 36.8 min | Vd (0.24 mg/kg, Vss, males, 0.24 mg/kg, 1 hour IV infusion, geometric mean): 23.2 L | Vd (0.24 mg/kg, Vz, males, 1 hour IV infusion, geometric mean): 74.6 L | half-life (0.24 mg/kg, 1 hour IV infusion, geometric mean): 82.2 min | Tmax (0.24 mg/kg, males, 1 hour IV infusion): 60 min | AUC(0-t) [6]: 808 ng·h/mL | AUC(0-inf) [6]: 812 ng·h/mL | clearance [6]: 569 mL/min | Cmax [6]: 779 ng/mL | MRT [6]: 37.4 min | Vd (0.36 mg/kg, Vss, males, 0.36 mg/kg, 1 hour IV infusion, geometric mean): 21.2 L | Vd (0.36 mg/kg, Vz, males, 1 hour IV infusion, geometric mean): 80.6 L | half-life (0.36 mg/kg, 1 hour IV infusion, geometric mean): 98.4 min | Tmax (0.36 mg/kg, males, 1 hour IV infusion): 60 min | AUC(0-t) [7]: 1080 ng·h/mL | AUC(0-inf) [7]: 1080 ng·h/mL | clearance [7]: 504 mL/min | Cmax [7]: 943 ng/mL | MRT [7]: 37.1 min | Vd (0.42 mg/kg, Vss, males, 0.42 mg/kg, 1 hour IV infusion, geometric mean): 18.7 L | Vd (0.42 mg/kg, Vz, males, 1 hour IV infusion, geometric mean): 77.9 L | half-life (0.42 mg/kg, 1 hour IV infusion, geometric mean): 107 min | Tmax (0.42 mg/kg, males, 1 hour IV infusion): 60 min | AUC(0-t) [8]: 1120 ng·h/mL | AUC(0-inf) [8]: 1120 ng·h/mL | clearance [8]: 576 mL/min | Cmax [8]: 982 ng/mL | MRT [8]: 38.9 min | Vd (0.48 mg/kg, Vss, males, 0.48 mg/kg, 1 hour IV infusion, geometric mean): 22.4 L | Vd (0.48 mg/kg, Vz, males, 1 hour IV infusion, geometric mean): 93.3 L | half-life (0.48 mg/kg, 1 hour IV infusion, geometric mean): 112 min | Tmax (0.48 mg/kg, males, 1 hour IV infusion): 52.5 min | AUC0-t (norm), ratio of geometric least squares means 5-minute:1-hour (males): 1.02 | AUC0-∞ (norm), ratio of geometric least squares means 5-minute:1-hour (males): 1.04 | CL, ratio of geometric least squares means 5-minute:1-hour (males): 0.964 | Cmax (norm), ratio of geometric least squares means 5-minute:1-hour (males): 4.49 | Cmax, fold higher for the 5-minute compared to the 1-hour infusion (males): approximately 4.5 fold | MRTint, ratio of geometric least squares means 5-minute:1-hour (males): 0.923 | Vss, ratio of geometric least squares means 5-minute:1-hour (males): 0.900 | Vz, ratio of geometric least squares means 5-minute:1-hour (males): 1.03 | t1/2, ratio of geometric least squares means 5-minute:1-hour (males): 1.02 | MRTint (males, 0.24 mg/kg, 1 hour IV infusion, geometric mean): 36.8 min | MRTint, geometric least squares mean (males, 1-hour infusion): 36.3 min | MRTint, geometric least squares mean (males, 5-minute infusion): 33.5 min | Pooled between-subject variability for AUC0-∞ [9]: 15.3% | Pooled between-subject variability for Cmax [9]: 24.1%
